What was measured:
ISC-enriched organoids [1] = test: Primary screen, 384-well 2.5-D organoid differentiation (ENR+CD, 6 days): basal lysozyme secretion (LYZ.NS); assay type: cell-based, murine; conditions: for Dose.FC.LYZ.NS: FC vs plate median; for Z.LYZ.NS: standard z score of FC; for Dose.FC.LYZ.NS (log 2 fold change): vs plate median
From the text: (§1) High-throughput screening.

ISC-enriched organoids [2] = test: Primary screen, 384-well 2.5-D organoid differentiation (ENR+CD, 6 days): carbachol-induced lysozyme secretion (LYZ.S); assay type: cell-based, murine; conditions: primary screen; for Dose.FC.LYZ.S: FC vs plate median; for Dose.FC.LYZ.S (log 2 fold change): vs plate median
From the text: as §1

ISC-enriched organoids [3] = test: Primary screen, 384-well 2.5-D organoid differentiation (ENR+CD, 6 days, Target Selective Inhibitor Library, vs whole-plate median): ATP (CellTiter-Glo 3D, CTG); conditions: for Dose.FC.CTG: FC vs plate median; for Z.CTG: standard z score of FC; for Dose.FC.CTG (log 2 fold change): vs plate median
[4] = primary screen, dose 0.08 uM, ENR+CD 6 days
[5] = primary screen, dose 0.40 uM, ENR+CD 6 days
[6] = primary screen, dose 2.00 uM, ENR+CD 6 days
[7] = primary screen, dose 10.00 uM, ENR+CD 6 days

Row | SMILES | Z.LYZ.NS (standard z score) (ISC-enriched organoids [1]; Dose 0.08 uM, primary screen) | Dose.FC.LYZ.NS (log 2 fold change) (ISC-enriched organoids [1]; Dose 0.08 uM, primary screen) | Z.LYZ.NS (standard z score) (ISC-enriched organoids [1]; Dose 0.40 uM, primary screen) | Dose.FC.LYZ.NS (log 2 fold change) (ISC-enriched organoids [1]; Dose 0.40 uM, primary screen) | Z.LYZ.NS (standard z score) (ISC-enriched organoids [1]; Dose 2.00 uM, primary screen) | Dose.FC.LYZ.NS (log 2 fold change) (ISC-enriched organoids [1]; Dose 2.00 uM, primary screen) | Z.LYZ.NS (standard z score) (ISC-enriched organoids [1]; Dose 10.00 uM, primary screen) | Dose.FC.LYZ.NS (log 2 fold change) (ISC-enriched organoids [1]; Dose 10.00 uM, primary screen) | Dose.FC.LYZ.S (log 2 fold change) (ISC-enriched organoids [2]; Dose 0.08 uM) | Dose.FC.LYZ.S (log 2 fold change) (ISC-enriched organoids [2]; Dose 0.40 uM) | Dose.FC.LYZ.S (log 2 fold change) (ISC-enriched organoids [2]; Dose 2.00 uM) | Dose.FC.LYZ.S (log 2 fold change) (ISC-enriched organoids [2]; Dose 10.00 uM) | Z.CTG (standard z score) (ISC-enriched organoids [3]; Dose 0.08 uM, primary screen) | Dose.FC.CTG (log 2 fold change) (ISC-enriched organoids [3]; Dose 0.08 uM, primary screen) | Z.CTG (standard z score) (ISC-enriched organoids [3]; Dose 0.40 uM, primary screen) | Dose.FC.CTG (log 2 fold change) (ISC-enriched organoids [3]; Dose 0.40 uM, primary screen) | Z.CTG (standard z score) (ISC-enriched organoids [3]; Dose 2.00 uM, primary screen) | Dose.FC.CTG (log 2 fold change) (ISC-enriched organoids [3]; Dose 2.00 uM, primary screen) | Z.CTG (standard z score) (ISC-enriched organoids [3]; Dose 10.00 uM, primary screen) | Dose.FC.CTG (log 2 fold change) (ISC-enriched organoids [3]; Dose 10.00 uM, primary screen) | also measured
1 | O=C(O)c1cccc(-c2noc(-c3ccccc3F)n2)c1 [Ataluren (PTC124)] | – | – | – | – | – | – | – | – | – | – | – | – | – | – | – | – | – | – | – | – | Dose.FC.LYZ.NS (ISC-enriched organoids [1]; [4]): 0.029 log 2 fold change; Z.LYZ.NS (ISC-enriched organoids [1]; primary screen, dose 0.08 uM): 0.253; Dose.FC.LYZ.NS (ISC-enriched organoids [1]; [5]): 0.042 log 2 fold change; Z.LYZ.NS (ISC-enriched organoids [1]; primary screen, dose 0.40 uM): 0.362; Dose.FC.LYZ.NS (ISC-enriched organoids [1]; [6]): 0.131 log 2 fold change; Z.LYZ.NS (ISC-enriched organoids [1]; primary screen, dose 2.00 uM): 1.140; Dose.FC.LYZ.NS (ISC-enriched organoids [1]; [7]): 0.009 log 2 fold change; Z.LYZ.NS (ISC-enriched organoids [1]; primary screen, dose 10.00 uM): 0.077; Dose.FC.LYZ.S (ISC-enriched organoids [2]; dose 0.08 uM, ENR+CD 6 days): 0.051 log 2 fold change; Dose.FC.LYZ.S (ISC-enriched organoids [2]; dose 0.40 uM, ENR+CD 6 days): 0.034 log 2 fold change; Dose.FC.LYZ.S (ISC-enriched organoids [2]; dose 2.00 uM, ENR+CD 6 days): 0.058 log 2 fold change; Dose.FC.LYZ.S (ISC-enriched organoids [2]; dose 10.00 uM, ENR+CD 6 days): 0.005 log 2 fold change; Dose.FC.CTG (ISC-enriched organoids [3]; [4]): 0.267 log 2 fold change; Z.CTG (ISC-enriched organoids [3]; primary screen, dose 0.08 uM): 0.639; Dose.FC.CTG (ISC-enriched organoids [3]; [5]): −0.340 log 2 fold change; Z.CTG (ISC-enriched organoids [3]; primary screen, dose 0.40 uM): −0.813; Dose.FC.CTG (ISC-enriched organoids [3]; [6]): −0.042 log 2 fold change; Z.CTG (ISC-enriched organoids [3]; primary screen, dose 2.00 uM): −0.100; Dose.FC.CTG (ISC-enriched organoids [3]; [7]): 0.006 log 2 fold change; Z.CTG (ISC-enriched organoids [3]; primary screen, dose 10.00 uM): 0.013
2 | OCCn1cc(-c2cnc3nnn(Cc4ccc5ncccc5c4)c3n2)cn1 [PF-04217903] | – | – | – | – | – | – | – | – | – | – | – | – | – | – | – | – | – | – | – | – | Dose.FC.LYZ.NS (ISC-enriched organoids [1]; Dose 0.08 uM, primary screen): 0.085 log 2 fold change; Z.LYZ.NS (ISC-enriched organoids [1]; Dose 0.08 uM): 0.742; Dose.FC.LYZ.NS (ISC-enriched organoids [1]; Dose 0.40 uM, primary screen): 0.161 log 2 fold change; Z.LYZ.NS (ISC-enriched organoids [1]; Dose 0.40 uM): 1.404; Dose.FC.LYZ.NS (ISC-enriched organoids [1]; Dose 2.00 uM, primary screen): 0.122 log 2 fold change; Z.LYZ.NS (ISC-enriched organoids [1]; Dose 2.00 uM): 1.060; Dose.FC.LYZ.NS (ISC-enriched organoids [1]; Dose 10.00 uM, primary screen): 0.071 log 2 fold change; Z.LYZ.NS (ISC-enriched organoids [1]; Dose 10.00 uM): 0.617; Dose.FC.LYZ.S (ISC-enriched organoids [2]; Dose 0.08 uM): 0.110 log 2 fold change; Dose.FC.LYZ.S (ISC-enriched organoids [2]; Dose 0.40 uM): 0.265 log 2 fold change; Dose.FC.LYZ.S (ISC-enriched organoids [2]; Dose 2.00 uM): 0.049 log 2 fold change; Dose.FC.LYZ.S (ISC-enriched organoids [2]; Dose 10.00 uM): 0.127 log 2 fold change; Dose.FC.CTG (ISC-enriched organoids [3]; Dose 0.08 uM, primary screen): 0.136 log 2 fold change; Z.CTG (ISC-enriched organoids [3]; Dose 0.08 uM): 0.326; Dose.FC.CTG (ISC-enriched organoids [3]; Dose 0.40 uM, primary screen): 0.258 log 2 fold change; Z.CTG (ISC-enriched organoids [3]; Dose 0.40 uM): 0.616; Dose.FC.CTG (ISC-enriched organoids [3]; Dose 2.00 uM, primary screen): −0.051 log 2 fold change; Z.CTG (ISC-enriched organoids [3]; Dose 2.00 uM): −0.122; Dose.FC.CTG (ISC-enriched organoids [3]; Dose 10.00 uM, primary screen): 0.116 log 2 fold change; Z.CTG (ISC-enriched organoids [3]; Dose 10.00 uM): 0.276
3 | Cn1cnc2c(F)c(Nc3ccc(Br)cc3Cl)c(C(=O)NOCCO)cc21 [Selumetinib (AZD6244)] | 0.181 | 0.021 | −0.188 | −0.022 | −0.847 | −0.097 | −1.220 | −0.140 | 0.004 | −0.047 | −0.175 | −0.211 | 0.393 | 0.164 | −0.395 | −0.165 | −0.613 | −0.257 | −2.035 | −0.852 | –
4 | O=C(NNc1nc2cc(F)ccc2n2cccc12)c1cnccn1 [SC144] | 0.582 | 0.067 | −0.112 | −0.013 | −0.220 | −0.025 | −1.355 | −0.156 | 0.098 | 0.014 | −0.131 | −0.211 | 0.381 | 0.160 | 0.309 | 0.129 | −0.613 | −0.257 | −2.113 | −0.885 | –
